Experimental data reported in patent US9067190B2, “Method for loading amphiphile particles with active agents” (CAMURUS AB, priority 2003, dated 2015).

Experiments:
[1] = Effect of heat treatment on carrier-bound fraction of octreotide (loading system 3); format: physicochemical; settings: 200 μg/ml octreotide, 5% amphiphile analogue of loading system 3
Method: Octreotide at a concentration of 200 μg/ml was added to 5% amphiphile analogues of loading system 3 (water content 95%). One set of samples were equilibrated at room temperature for 1 day, while another set was autoclaved at 125° C. for 20 minutes. The ocreotide concentration was determined by HPLC using a size exclusion column coupled to a UV detector.

[2] = Higher loading of progesterone by heat treatment (GMO/oleic acid/Lutrol F127 cubic particles); format: physicochemical
Method: Pre-formulations were prepared, including the fatty acid oleic acid, by the following method. • a) An initial melt was prepared containing GMO (85.5%), oleic acid (4.5%) and Lutrol F127 (10%). To 9 g of water under mechanical stirring was added 1 g of the molten mixture to form a coarse dispersion. • b) The coarse dispersion was homogenised with a microfluidiser at 345 bar. • c) The dispersion was heated to 120° C. for 20 minutes and cooled to room temperature.
The steroid hormone progesterone was incubated with the cubic particles formed in steps a) to c), at room temperature. The equilibrium loading level was 3% by weight.
The above method was repeated by the active agent progesterone was included in the aqueous phase prior to the homogenisation and heat treatment steps. The loading level was again examined and established to be 18 wt %. The effect upon the particle size distribution was minimal.
The composition with 18 wt % progesterone generated above was stored at room temperature for 14 days.

Row | Effect upon the particle size distribution ([2]; heat treatment loading of progesterone) | Loading level ([2]; progesterone in aqueous phase prior to homogenisation and heat treatment (120° C., 20 minutes)) [wt %] | Equilibrium loading level ([2]; progesterone incubated with preformed cubic particles at room temperature) [% by weight] | Compound | % bound octreotide ([1]; 1 day at room temperature) [%] | % bound octreotide ([1]; After Autoclavation 20 min (125° C.)) [%]
1 | – | – | – | C[C@@H](O)[C@@H]1NC(=O)[C@H](CCCCN)NC(=O)[C@@H](Cc2c[nH]c3ccccc23)NC(=O)[C@H](Cc2ccccc2)NC(=O)[C@@H](NC(=O)[C@H](N)Cc2ccccc2)CSSC[C@@H](C(=O)N[C@H](CO)[C@@H](C)O)NC1=O [octreotide] | 18.07 | 30.04
2 | minimal | 18 | 3 | CC(=O)[C@H]1CC[C@H]2[C@@H]3CCC4=CC(=O)CC[C@]4(C)[C@H]3CC[C@]12C [progesterone] | – | –
